Experimental data reported in patent US12595269B2, “Morpholine-like monoamine releasers” (Solvonis Therapeutics Ireland Holdings Limited, priority 2022, dated 2026).
Like-named read-outs stand apart in the source and are kept apart here.

Assay: Pharmacokinetic and brain penetration study, intravenous and oral administration in rats
Assay type: in vivo
Settings: rat; for concentration at 8 h: read-out: Clast; for Vd: read-out: Vss
Method: Methods and Procedure: The study was conducted in agreement with procedures to assure data integrity and GLP principles. Three experimental groups, as outlined below, were included in the study:
Group 1: Exemplary compound 522A was administered via the IV route to three rats at a target dose level of 0.5 mg/kg. Blood and brain samples were collected at 2h after IV administration.
Group 2: Exemplary compound 522A was administered via the IV route to three rats (brain penetration group) at a target dose level of 0.5 mg/kg. Blood and brain samples were collected at 2h after IV administration.
Group 3: Exemplary compound 522A was orally administered to three rats at a target dose level of 1 mg/kg. Blood samples were collected up to 24h after oral administration.
All test formulations were prepared on the day of administration prior to dosing, stored at room temperature, and used as soon as possible. Formulations were prepared and administered by volume for both IV and oral dosing. Actual body weights were determined on the day of dose administration, and the dose volumes were adjusted to the weight of the animal at the time of dose administration.
Blood was collected into K3 EDTA tubes at each of the following time points post-administration: • Group 1 (ITS): 0.083, 0.33, 1, 2, 4, 6, 8, and 24 hours after dosing • Group 2 (ITS): 2 hours after dosing for terminal brain analysis • Group 3 (Oral): 0.250, 0.5, 1, 2, 4, 6, 8, and 24 hours after dosing
All blood samples were thoroughly but gently mixed following collection and then placed on wet ice. Within 0.5 h of collection, blood was centrifuged (3000 g for 10 minutes at approximately 4° C.). Within 0.5 hours, 20 μL of each plasma sample was transferred into micronic tubes containing 80 μL of 0.1N Hepes buffer (pH 7.0-7.5). Residual plasma was transferred in micronic tubes as a second aliquot.
Brain specimens were diluted with 4 volumes of 0. IN Hepes buffer and homogenized using the Precellys system. Blood and brain samples were assayed using an optimized method based on protein precipitation with acetonitrile followed by HPLC/MS-MS analysis. Given the unknown stability of analytes in blood and brain, Calibration standards (CS) and Quality control samples (QC) were prepared in blood and brain samples on the day of dosing and stored together with study samples. It is assumed this procedure accounted for any possible analyte degradation.
Study samples, CS, QC, and blanks were spiked with an internal standard (IS), to improve the precision of the assay. Study samples were analyzed together with CS, QC and blank samples (including double blanks). From the calibration curve, the linear range of the analytical method was determined and the lower/upper limits of quantitation were specified.
The results of blood and brain specimens were subjected to non-compartmental pharmacokinetic analysis using Phoenix WinNonlin 6.3, with the following parameters reported: Calculated concentration of test items in the corresponding formulation (expressed as mg/mL), dose levels (expressed as mg/kg) for each compound, actual collection times (expressed as hh: mM), blood concentrations (expressed as ng/ml) for each compound, brain concentrations (expressed as ng/g) for each compound, PK parameters (iv: Cmax, AUC, CLp, Vss, t1/2, if applicable; oral (po): Cmax, tmax, AUC, F %, Fa %, Eh, AUC BB ratio, if applicable) for each compound, and abnormal clinical signs and relevant findings, if any.

[1] = plasma, iv, 0.5 mg/kg, 0.5 mg/kg (Table 8)
[2] = plasma, iv, 0.5 mg/kg, 0.5 mg/kg (Table 9)
[3] = plasma, iv, 0.5 mg/kg, IV, 0.5 mg/kg (Table 8)
[4] = plasma, iv, 0.5 mg/kg, IV, 0.5 mg/kg (Table 9)

Clc1ccc(C23CNC(CO2)C3)cc1Cl (stereo not shown) [522A, 1-(3,4-dichlorophenyl)-2-oxa-5-azabicyclo[2.2.1]heptane] showed a Kp uu at 2 h (brain and blood, 0.5 mg/kg, two hours after IV administration, read-out: concentration ratio of unbound drug in brain to blood (kp, uu)) of 0.77, a Kp at 2 h (brain and plasma, 0.5 mg/kg, two hours after IV administration, read-out: mean brain-to-plasma ratio) of 4.96 and a Tmax (plasma, IV, 0.5 mg/kg (Table 8)) of 0.08 h. It also gave a Tmax (plasma, oral (PO), 1 mg/kg) of 2 h, a bioavailability (plasma, oral (PO), 1 mg/kg versus IV) of 30.8% and a Tlast (IV, 0.5 mg/kg (Table 8)) of 8 h. For the same molecule, the Tlast (IV, 0.5 mg/kg (Table 9)) was 8 h, the concentration at 2 h (brain, iv, 0.5 mg/kg, two hours after IV administration, 0.5 mg/kg, read-out: free concentration in the brain) was 42.8 nM and the concentration at 2 h (brain, iv, 0.5 mg/kg, two hours after IV administration, 0.5 mg/kg, read-out: total concentration in the brain) was 1930 nM. For the same molecule, the Tlast (oral (PO), 1 mg/kg) was 8 h, the AUC(0-inf) [1] was 1480 ng·h/mL and the AUC(0-t) [1] was 1460 ng·h/mL. For the same molecule, the Cmax [1] was 1890 ng/mL, the clearance [1] was 5.71 mL/min/kg and the half-life [1] was 1.36 h. For the same molecule, the AUC(0-inf) [2] was 799 ng·h/mL, the AUC(0-t) [2] was 772 ng·h/mL and the Cmax [2] was 878 ng/mL. It also gave a clearance [2] of 11.6 mL/min/kg, a half-life [2] of 1.65 h and a concentration at 8 h [3] of 9.32 ng/mL. It also gave a Vd [3] of 0.411 L/kg, a concentration at 8 h [4] of 10.6 ng/mL and a Vd [4] of 1.48 L/kg. It also gave a concentration at 2 h (plasma, iv, 0.5 mg/kg, two hours after IV administration, 0.5 mg/kg, read-out: free concentration in plasma) of 71.3 nM, a concentration at 2 h (plasma, iv, 0.5 mg/kg, two hours after IV administration, 0.5 mg/kg, read-out: total plasma concentration) of 594 nM and an AUC(0-inf) (plasma, po, 1 mg/kg, oral (PO)) of 509 ng·h/mL. The AUC(0-t) (plasma, po, 1 mg/kg, oral (PO)) was 442 ng·h/mL, the Cmax (plasma, po, 1 mg/kg, oral (PO)) was 102 ng/mL and the half-life (plasma, po, 1 mg/kg, oral (PO)) was 2.42 h. It also gave a concentration at 8 h (plasma, po, 1 mg/kg, oral (PO), 1 mg/kg) of 19.3 ng/mL.
